Test results: ChEMBL document CHEMBL1275557, “First countrywide survey of acquired metallo-beta-lactamases in gram-negative pathogens in Italy” (2008)
Converted amounts (≈) assume the structure as drawn.

How the values were obtained:
Format in all cases: functional
[1] = tested on: Pseudomonas aeruginosa; test: Antibacterial activity against VIM-1 producing Pseudomonas aeruginosa clone A1 isolate FG-17X-14 by Etest method
[2] = tested on: Pseudomonas aeruginosa; test: Antibacterial activity against VIM-1 producing Pseudomonas aeruginosa clone G isolate NA-14X-13 by Etest method
[3] = tested on: Pseudomonas aeruginosa; test: Antibacterial activity against VIM-1 producing Pseudomonas aeruginosa clone A2 isolate NA-14X-32 by Etest method in presence of Tazobactam
[4] = tested on: Pseudomonas aeruginosa; test: Antibacterial activity against VIM-1 producing Pseudomonas aeruginosa clone D1 isolate VA-06X-63 by Etest method in presence of Tazobactam
[5] = tested on: Pseudomonas aeruginosa; test: Antibacterial activity against metallo-beta-lactamase positive Pseudomonas aeruginosa assessed as percent susceptible isolates by Etest method in presence of Tazobactam
[6] = tested on: Pseudomonas putida; test: Antibacterial activity against VIM-1 producing Pseudomonas putida isolate RM-11X-11 by Etest method in presence of Tazobactam
[7] = tested on: Pseudomonas aeruginosa; test: Antibacterial activity against VIM-2 producing Pseudomonas aeruginosa clone B3 isolate PV-05X-02 by Etest method in presence of Tazobactam
[8] = tested on: Pseudomonas aeruginosa; test: Antibacterial activity against IMP-13 producing Pseudomonas aeruginosa clone C1 isolate AV-13X-28 by Etest method
[9] = tested on: Pseudomonas aeruginosa; test: Antibacterial activity against VIM-1 producing Pseudomonas aeruginosa clone D1 isolate VA-06X-63 by Etest method
[10] = tested on: Pseudomonas aeruginosa; test: Antibacterial activity against IMP-13 producing Pseudomonas aeruginosa clone C3 isolate PG-12X-03 by Etest method in presence of Tazobactam
[11] = tested on: Pseudomonas aeruginosa; test: Antibacterial activity against VIM-2 producing Pseudomonas aeruginosa clone B2 isolate VA-06X-20 by Etest method in presence of Tazobactam
[12] = tested on: Pseudomonas aeruginosa; test: Antibacterial activity against VIM-1 producing Pseudomonas aeruginosa clone F isolate RM-11X-09 by Etest method in presence of Tazobactam
[13] = tested on: Pseudomonas aeruginosa; test: Antibacterial activity against VIM-2 producing Pseudomonas aeruginosa clone B3 isolate PV-05X-02 by Etest method
[14] = tested on: Pseudomonas aeruginosa; test: Antibacterial activity against IMP-13 producing Pseudomonas aeruginosa clone C2 isolate NA-14X-02 by Etest method
[15] = tested on: Pseudomonas aeruginosa; test: Antibacterial activity against IMP-13 producing Pseudomonas aeruginosa clone C2 isolate NA-14X-10 by Etest method
[16] = tested on: Pseudomonas aeruginosa; test: Antibacterial activity against VIM-1 producing Pseudomonas aeruginosa clone D2 isolate VA-06X-17 by Etest method
[17] = tested on: Pseudomonas aeruginosa; test: Antibacterial activity against VIM-2 producing Pseudomonas aeruginosa clone B3 isolate CR-04X-14 by Etest method
[18] = tested on: Pseudomonas aeruginosa; test: Antibacterial activity against VIM-1 producing Pseudomonas aeruginosa clone A3 isolate NA-14X-34 by Etest method in presence of Tazobactam
[19] = tested on: Pseudomonas aeruginosa; test: Antibacterial activity against VIM-1 producing Pseudomonas aeruginosa clone F isolate RM-11X-09 by Etest method
[20] = tested on: Enterobacter cloacae; test: Antibacterial activity against VIM-1 producing Enterobacter cloacae isolate TO-16X-51 by Etest method
[21] = tested on: Pseudomonas aeruginosa; test: Antibacterial activity against IMP-13 producing Pseudomonas aeruginosa clone C2 isolate NA-14X-11 by Etest method
[22] = tested on: Pseudomonas aeruginosa; test: Antibacterial activity against VIM-1 producing Pseudomonas aeruginosa clone A3 isolate NA-14X-34 by Etest method
[23] = tested on: Pseudomonas aeruginosa; test: Antibacterial activity against VIM-2 producing Pseudomonas aeruginosa clone B2 isolate VA-06X-38 by Etest method
[24] = tested on: Enterobacter cloacae; test: Antibacterial activity against VIM-1 producing Enterobacter cloacae isolate TO-16X-51 by Etest method in presence of Tazobactam
[25] = tested on: Pseudomonas aeruginosa; test: Antibacterial activity against VIM-1 producing Pseudomonas aeruginosa clone D4 isolate VA-06X-47 by Etest method
[26] = tested on: Pseudomonas aeruginosa; test: Antibacterial activity against VIM-2 producing Pseudomonas aeruginosa clone B3 isolate PV-05X-07 by Etest method in presence of Tazobactam
[27] = tested on: Pseudomonas aeruginosa; test: Antibacterial activity against VIM-1 producing Pseudomonas aeruginosa clone A2 isolate NA-14X-26 by Etest method in presence of Tazobactam
[28] = tested on: Pseudomonas aeruginosa; test: Antibacterial activity against VIM-2 producing Pseudomonas aeruginosa clone B3 isolate PV-05X-07 by Etest method
[29] = tested on: Pseudomonas aeruginosa; test: Antibacterial activity against VIM-1 producing Pseudomonas aeruginosa clone A2 isolate NA-14X-21 by Etest method
[30] = tested on: Pseudomonas aeruginosa; test: Antibacterial activity against VIM-2 producing Pseudomonas aeruginosa clone B3 isolate CR-04X-14 by Etest method in presence of Tazobactam
[31] = tested on: Pseudomonas aeruginosa; test: Antibacterial activity against VIM-2 producing Pseudomonas aeruginosa clone B2 isolate VA-06X-28 by Etest method in presence of Tazobactam
[32] = tested on: Pseudomonas aeruginosa; test: Antibacterial activity against IMP-13 producing Pseudomonas aeruginosa clone C2 isolate NA-14X-12 by Etest method
[33] = tested on: Pseudomonas aeruginosa; test: Antibacterial activity against IMP-13 producing Pseudomonas aeruginosa clone C2 isolate NA-14X-12 by Etest method in presence of Tazobactam
[34] = tested on: Pseudomonas aeruginosa; test: Antibacterial activity against IMP-13 producing Pseudomonas aeruginosa clone C2 isolate NA-14X-02 by Etest method in presence of Tazobactam
[35] = tested on: Pseudomonas aeruginosa; test: Antibacterial activity against VIM-1 producing Pseudomonas aeruginosa clone A2 isolate NA-14X-26 by Etest method
[36] = tested on: Pseudomonas aeruginosa; test: Antibacterial activity against VIM-1 producing Pseudomonas aeruginosa clone D2 isolate VA-06X-16 by Etest method
[37] = tested on: Pseudomonas aeruginosa; test: Antibacterial activity against IMP-13 producing Pseudomonas aeruginosa clone C2 isolate NA-14X-10 by Etest method in presence of Tazobactam
[38] = tested on: Pseudomonas aeruginosa; test: Antibacterial activity against VIM-1 producing Pseudomonas aeruginosa clone D3 isolate VA-06X-65 by Etest method
[39] = tested on: Pseudomonas aeruginosa; test: Antibacterial activity against VIM-1 producing Pseudomonas aeruginosa clone D2 isolate VA-06X-16 by Etest method in presence of Tazobactam
[40] = tested on: Pseudomonas aeruginosa; test: Antibacterial activity against VIM-1 producing Pseudomonas aeruginosa clone A2 isolate NA-14X-32 by Etest method
[41] = tested on: Pseudomonas aeruginosa; test: Antibacterial activity against VIM-1 producing Pseudomonas aeruginosa clone A1 isolate FG-17X-14 by Etest method in presence of Tazobactam
[42] = tested on: Pseudomonas aeruginosa; test: Antibacterial activity against VIM-1 producing Pseudomonas aeruginosa clone E isolate VA-06X-29 by Etest method in presence of Tazobactam
[43] = tested on: Pseudomonas aeruginosa; test: Antibacterial activity against VIM-1 producing Pseudomonas aeruginosa clone D2 isolate VA-06X-17 by Etest method in presence of Tazobactam
[44] = tested on: Pseudomonas aeruginosa; test: Antibacterial activity against VIM-1 producing Pseudomonas aeruginosa clone D4 isolate VA-06X-47 by Etest method in presence of Tazobactam
[45] = tested on: Pseudomonas aeruginosa; test: Antibacterial activity against VIM-1 producing Pseudomonas aeruginosa clone G isolate NA-14X-13 by Etest method in presence of Tazobactam
[46] = tested on: Pseudomonas aeruginosa; test: Antibacterial activity against VIM-1 producing Pseudomonas aeruginosa clone A2 isolate NA-14X-21 by Etest method in presence of Tazobactam
[47] = tested on: Pseudomonas aeruginosa; test: Antibacterial activity against IMP-13 producing Pseudomonas aeruginosa clone C3 isolate PG-12X-03 by Etest method
[48] = tested on: Pseudomonas aeruginosa; test: Antibacterial activity against IMP-13 producing Pseudomonas aeruginosa clone C1 isolate AV-13X-28 by Etest method in presence of Tazobactam
[49] = tested on: Pseudomonas aeruginosa; test: Antibacterial activity against VIM-2 producing Pseudomonas aeruginosa clone B2 isolate VA-06X-38 by Etest method in presence of Tazobactam
[50] = tested on: Pseudomonas aeruginosa; test: Antibacterial activity against VIM-2 producing Pseudomonas aeruginosa clone B2 isolate VA-06X-28 by Etest method
[51] = tested on: Pseudomonas aeruginosa; test: Antibacterial activity against VIM-2 producing Pseudomonas aeruginosa clone B1 isolate SS-09X-45 by Etest method
[52] = tested on: Pseudomonas aeruginosa; test: Antibacterial activity against VIM-1 producing Pseudomonas aeruginosa clone A3 isolate FG-17X-08 by Etest method in presence of Tazobactam
[53] = tested on: Pseudomonas aeruginosa; test: Antibacterial activity against VIM-2 producing Pseudomonas aeruginosa clone B1 isolate SS-09X-45 by Etest method in presence of Tazobactam
[54] = tested on: Pseudomonas aeruginosa; test: Antibacterial activity against IMP-13 producing Pseudomonas aeruginosa clone C2 isolate NA-14X-11 by Etest method in presence of Tazobactam
[55] = tested on: Pseudomonas aeruginosa; test: Antibacterial activity against VIM-1 producing Pseudomonas aeruginosa clone D isolate VA-06X-69 by Etest method
[56] = tested on: Pseudomonas aeruginosa; test: Antibacterial activity against VIM-1 producing Pseudomonas aeruginosa clone E isolate VA-06X-29 by Etest method
[57] = tested on: Pseudomonas aeruginosa; test: Antibacterial activity against VIM-1 producing Pseudomonas aeruginosa clone A3 isolate FG-17X-08 by Etest method
[58] = tested on: Pseudomonas aeruginosa; test: Antibacterial activity against VIM-1 producing Pseudomonas aeruginosa clone D isolate VA-06X-69 by Etest method in presence of Tazobactam
[59] = tested on: Pseudomonas aeruginosa; test: Antibacterial activity against VIM-2 producing Pseudomonas aeruginosa clone B2 isolate VA-06X-20 by Etest method
[60] = tested on: Pseudomonas putida; test: Antibacterial activity against VIM-1 producing Pseudomonas putida isolate RM-11X-11 by Etest method
[61] = tested on: Pseudomonas aeruginosa; test: Antibacterial activity against VIM-1 producing Pseudomonas aeruginosa clone D3 isolate VA-06X-65 by Etest method in presence of Tazobactam

CCN1CCN(C(=O)N[C@@H](C(=O)N[C@@H]2C(=O)N3[C@@H]2SC(C)(C)[C@@H]3C(=O)O)c2ccccc2)C(=O)C1=O [PIPERACILLIN]
MIC [1]: > 128 µg/mL | MIC [2]: > 128 µg/mL | MIC [3]: > 128 µg/mL | MIC [4]: > 128 µg/mL | Activity [5]: 39% | MIC [6]: > 128 µg/mL | MIC [7]: 32 µg/mL | MIC [8]: 24 µg/mL (≈ 46.4 µM) | MIC [9]: > 128 µg/mL | MIC [10]: 16 µg/mL | MIC [11]: 48 µg/mL | MIC [12]: > 128 µg/mL | MIC [13]: 48 µg/mL (≈ 92.7 µM) | MIC [14]: 24 µg/mL (≈ 46.4 µM) | MIC [15]: 16 µg/mL (≈ 30.9 µM) | MIC [16]: > 128 µg/mL | MIC [17]: > 128 µg/mL | MIC [18]: > 128 µg/mL | MIC [19]: > 128 µg/mL | MIC [20]: > 128 µg/mL | MIC [21]: 16 µg/mL (≈ 30.9 µM) | MIC [22]: > 128 µg/mL | MIC [23]: 32 µg/mL (≈ 61.8 µM) | MIC [24]: > 128 µg/mL | MIC [25]: > 128 µg/mL | MIC [26]: 32 µg/mL | MIC [27]: > 128 µg/mL | MIC [28]: 48 µg/mL (≈ 92.7 µM) | MIC [29]: > 128 µg/mL | MIC [30]: > 128 µg/mL | MIC [31]: 48 µg/mL | MIC [32]: 16 µg/mL (≈ 30.9 µM) | MIC [33]: 16 µg/mL | MIC [34]: 16 µg/mL | MIC [35]: > 128 µg/mL | MIC [36]: > 128 µg/mL | MIC [37]: 16 µg/mL | MIC [38]: > 128 µg/mL | MIC [39]: > 128 µg/mL | MIC [40]: > 128 µg/mL | MIC [41]: > 128 µg/mL | MIC [42]: > 128 µg/mL | MIC [43]: > 128 µg/mL | MIC [44]: > 128 µg/mL | MIC [45]: > 128 µg/mL | MIC [46]: > 128 µg/mL | MIC [47]: 16 µg/mL (≈ 30.9 µM) | MIC [48]: 16 µg/mL | MIC [49]: 32 µg/mL | MIC [50]: 64 µg/mL (≈ 124 µM) | MIC [51]: > 128 µg/mL | MIC [52]: > 128 µg/mL | MIC [53]: > 128 µg/mL | MIC [54]: 16 µg/mL | MIC [55]: > 128 µg/mL | MIC [56]: > 128 µg/mL | MIC [57]: > 128 µg/mL | MIC [58]: > 128 µg/mL | MIC [59]: 64 µg/mL (≈ 124 µM) | MIC [60]: > 128 µg/mL | MIC [61]: > 128 µg/mL
